Consider three compounds from the NIST ThermoML archive (doi:10.1016/j.jct.2014.03.027).

This data set in a line: molar enthalpy of vaporization or sublimation. The note with it: 298.15 K, Static calorimetry.

± gives the expanded uncertainty stated by the source.

With `COc1cccc(C(C)=O)c1` [3'-methoxyacetophenone], the molar enthalpy (Liquid) was determined as 67.8 ± 1.2 kJ/mol.
The same measure, in the same setting: next, `COc1ccccc1C(C)=O` [2'-methoxyacetophenone]: 66.7 ± 1.2 kJ/mol.
On to `COc1ccc(C(C)=O)cc1` [4'-methoxyacetophenone], for which the molar enthalpy (Crystal) worked out at 87.8 ± 1.4 kJ/mol.
